Data reported in patent publication US20110207697A1, “XANTHOHUMOL COMPOSITIONS AND METHODS FOR TREATING SKIN DISEASES OR DISORDERS” (Betal, LLC, priority 2008, published 2011).

Columns and labels:
[1] = ORAC-Total (ORAClipo + ORAChydro); conditions: ORAClipo + ORAChydro
Excerpt: An ORAC method for lipophilic antioxidants was further developed and validated using fluorescein as the fluorescent probe (Prior et al. 2003 J. Agric. Food Chem. 51: 3273-3279). This method has the advantage that similar assay conditions and standards can be used for both hydrophilic and lipophilic antioxidant components, such that the two values can be added together to obtain a total antioxidant capacity. In the present work, the ORAC value is expressed as the sum of values of both the water-soluble and fat-soluble parts. Green tea catechins (Polyphenon 60) were used as the control with the highest ORAC value among edible plants. Vitamin C and vitamin E were used as controls for water- and fat-soluble molecules, respectively. […] The SOAC scores are not included in this figure; ORAC values used are the sum of lipophilic and hydrophilic results. For each assay category, scaling was made logarithmic so that the plot on the chart resembles the associated rating. […] The larger the spatial area, the higher the overall antioxidative capacity. […] Both hydrophilic and lipophilic oxygen radical absorbance capacity (ORAC) assays were carried out at Brunswick Laboratory (Wareham, Mass.) based on the modified ORACfl method reported by Ou et al. (2001 J. Agric. Food Chem. 49: 4619-4626, 2002 J. Agr. Food Chem. 50: 3122-3128). Trolox, a water-soluble vitamin E analog, was used as the calibration standard. The data are expressed as mmole of Trolox equivalents per gram (mmol TE/g). The acceptable precision of the ORAC assay is a 15% relative standard deviation. Caffeic acid was used as the calibration standard. Hydroxyl radical ORAC (HOR-AC) is expressed as mmole caffeic acid equivalent per gram (mmol CAE/g). Trolox was used as the calibration standard. The peroxyl nitrite ORAC (NORAC) result is expressed as mmol TE/g. Alpha-tocopherol (vitamin E) was used as the calibration standard, and the singlet oxygen absorbance capacity (SOAC) result is expressed as mmole a-tocopherol equivalent (mmol VtE) per gram (Aubry et al. 1989). The abbreviation for the 1,1-diphenyl-2-picrylhydrazyl radical is DPPH. Radical-scavenging activity was measured by the change in absorbance at 517 nm with the DPPH result expressed as mmol TE/g. Similarly, FRAP is an abbreviation for the ferric reducing antioxidative power method, which utilizes chemical conversion of the yellow Fe 3+-2,4,6-tripyridyl s-triazine (TPTZ) complex to the blue Fe 2+-TPTZ complex by electron donation under acidic conditions (Okada and Okada 1998 J. Agric. Food Chem. 46: 401-406). The FRAP result is expressed as mmol TE/g (Ou et al. 2002b). Superoxide dismutase (SOD) was used as a calibration standard; the SOD result is expressed as kilo unit SOD equivalent (kunitSODeq) per gram.

[2] = Lipophilic oxygen radical absorbance capacity (ORAC-L); conditions: lipid soluble antioxidant capacity; expressed as mmol TE/g; — = No activity detected
Excerpt: Thus the ORAC method has become a widely used method for assessing antioxidant capacity in biological samples and foods. However, because of its inability to measure both hydrophilic and lipophilic antioxidants, the method has its limitations. An ORAC method for lipophilic antioxidants was further developed and validated using fluorescein as the fluorescent probe (Prior et al. 2003 J. Agric. Food Chem. 51: 3273-3279). […] In the present work, the ORAC value is expressed as the sum of values of both the water-soluble and fat-soluble parts. […] Both hydrophilic and lipophilic oxygen radical absorbance capacity (ORAC) assays were carried out at Brunswick Laboratory (Wareham, Mass.) based on the modified ORACfl method reported by Ou et al. (2001 J. Agric. Food Chem. 49: 4619-4626, 2002 J. Agr. Food Chem. 50: 3122-3128). Trolox, a water-soluble vitamin E analog, was used as the calibration standard. The data are expressed as mmole of Trolox equivalents per gram (mmol TE/g). […] Hydroxyl radical ORAC (HOR-AC) is expressed as mmole caffeic acid equivalent per gram (mmol CAE/g). […] The peroxyl nitrite ORAC (NORAC) result is expressed as mmol TE/g. […] Radical-scavenging activity was measured by the change in absorbance at 517 nm with the DPPH result expressed as mmol TE/g. […] The FRAP result is expressed as mmol TE/g (Ou et al. 2002b).

[3] = Singlet oxygen absorbance capacity (SOAC); conditions: expressed as mmol VtE/g
Excerpt: [table] Alpha-tocopherol (vitamin E) was used as the calibration standard, and the SOAC result is expressed as mmol VtE/g. The higher the SOAC score, the higher the singlet oxygen-quenching capacity. […] Singlet oxygen has been postulated to be a highly reactive and toxic intermediate against skin. It is known that the acne-causing bacterium P. acnes naturally produces high amounts of intracellular porphyrins, mostly coproporphyrin (Ashkenazi et al. 2003). Singlet oxygen can be generated on the skin surface from P. acnes porphyrins under sunlight and induce serious skin damage ([…] et al. 1996 Biochem. Biophys. Res. Commun. 223: 578-582). Various skin disorders progress through a singlet oxygen-dependent mechanism, including acne, atopic dermatitis, and skin aging. Both hydrophilic and lipophilic oxygen radical absorbance capacity (ORAC) assays were carried out at Brunswick Laboratory (Wareham, Mass.) based on the modified ORACfl method reported by Ou et al. (2001 J. Agric. Food Chem. 49: 4619-4626, 2002 J. Agr. Food Chem. 50: 3122-3128). Trolox, a water-soluble vitamin E analog, was used as the calibration standard. The data are expressed as mmole of Trolox equivalents per gram (mmol TE/g). The acceptable precision of the ORAC assay is a 15% relative standard deviation. Caffeic acid was used as the calibration standard. Hydroxyl radical ORAC (HOR-AC) is expressed as mmole caffeic acid equivalent per gram (mmol CAE/g). Trolox was used as the calibration standard. The peroxyl nitrite ORAC (NORAC) result is expressed as mmol TE/g. Alpha-tocopherol (vitamin E) was used as the calibration standard, and the singlet oxygen absorbance capacity (SOAC) result is expressed as mmole a-tocopherol equivalent (mmol VtE) per gram (Aubry et al. 1989). […] Radical-scavenging activity was measured by the change in absorbance at 517 nm with the DPPH result expressed as mmol TE/g. […] The FRAP result is expressed as mmol TE/g (Ou et al. 2002b). Superoxide dismutase (SOD) was used as a calibration standard; the SOD result is expressed as kilo unit SOD equivalent (kunitSODeq) per gram.

Question: For O=C1O[C@H]([C@@H](O)CO)C(O)=C1O [Vitamin C, reference compound], which “ORAC-Total (Trolox equivalent)” value [1] is on record?
Answer: 1.4 Trolox equivalent

Question: With Cc1c(C)c2c(c(C)c1O)CC[C@@](C)(CCC[C@H](C)CCC[C@H](C)CCCC(C)C)O2 [Vitamin E, Alpha-tocopherol, reference compound] as the compound, how does the “ORAC-L (Trolox equivalent)” value [2] read?
Answer: 0.75 Trolox equivalent

Question: And the “ORAC-Total (Trolox equivalent)” value [1]?
Answer: 0.75 Trolox equivalent

Question: And the “SOAC (Vitamin E equivalent)” value [3]?
Answer: 1.0 Vitamin E equivalent
